Earlier results as cited in patent publication US20220142944A1, “TREATMENT OF SKIN DISORDERS WITH TOPICAL TAPINAROF-EGFR INHIBITOR COMPOSITIONS” (Sol-Gel Technologies Ltd., priority 2019, published 2022).

Columns and labels:
[1] = system: atopic dermatitis and plaque psoriasis
[2] = not given; remark: listed apart in the source
[3] = 1% tapinarof arm compared with 0.5% arm or vehicle

Row | Compound | solubility | efficacy [1, 3] | onset of action [1, 3] | most frequent adverse events ([1]; topical tapinarof) | rate of treatment-emergent adverse events ([2]; 93 of 165 with tapinarof, vehicle 34 of 82 [41%]) | intensity of treatment-emergent adverse events ([2]; in vivo)
1 | C#Cc1cccc(Nc2ncnc3cc(OCCOC)c(OCCOC)cc23)c1 [erlotinib] | poorly soluble | – | – | – | – | –
2 | CC(C)c1c(O)cc(/C=C/c2ccccc2)cc1O [tapinarof, 3,5-dihydroxy-4-isopropyl-trans-stilbene] | – | higher efficacy | quicker onset of action | folliculitis and contact dermatitis | 56% | mild to moderate
